Source: patent US20130131321A1, “LIGANDS FOR ANTIBODY AND Fc-FUSION PROTEIN PURIFICATION BY AFFINITY CHROMATOGRAPHY” (GRAFFINITY PHARMACEUTICALS GMBH, priority 2010, published 2013)
Read-outs that look alike come from different tables or passages of the source.

What was measured:
Bevacizumab Fc fragment = test: Microtiter plate chromatography of resins, Bevacizumab Fc fragment (bound); format: binding, humanized; settings: Bevacizumab Fc fragment
Description: (§1) Resins were assessed in packed mode by microtiter plate chromatography. For each column, approximately 30 μl of resin were transferred to a 384-well filter plate and sealed with appropriate top frits.
(§2) Columns were equilibrated with 6.7 column volumes (cv) of phosphate buffered saline (0.15 M NaCl, 20 mM sodium phosphate, pH 7.3; PBS) prior to injection. Either 3.3 cv of whole IgGs dissolved at 0.75 mg ml^−1, Fab or Fc fragments dissolved at 0.25 mg ml^−1 (all three in PBS) or host cell proteins (HCP) were injected onto columns. Antibody fragments of Bevacizumab (Fab and Fc) were prepared by cleavage of whole IgG with papain protease (3) according to the protocol of the manufacturer. […] Volumes transferred were spun through columns at 50 g for 1-2 min. During injection of samples, acceleration was reduced to 10 g and centrifugation time increased to 5-10 min. Effluent fractions were collected in 384-well plates and concentrations of protein analyzed by Bradford assay. Protein masses mi, mft and me (see below) were calculated as the product of fraction volume and measured protein concentration.
(§3) The fraction of ‘bound’ protein was calculated as the difference between the total mass of protein injected mi and the mass of protein detected in the flowthrough mft, divided by the total mass of protein injected.
(§4) the fraction of ‘bound’ protein and the ‘yield’ of protein were calculated for each resin based on data for whole IgG-antibodies. In the case of Bevacizumab fragments and host cell proteins, only the fraction of ‘bound’ protein is given. Selectivity of resins was calculated from data for Bevacizumab Whole IgG and host cell proteins. Due to limited experimental precision, selectivity was truncated beyond values of 10.

Bevacizumab Fab fragment = test: Microtiter plate chromatography of resins, Bevacizumab Fab fragment (bound); format: binding, humanized; settings: Bevacizumab Fab fragment
Description: as §1, §2, §3, §4

Bevacizumab [1] = target: T1, Bevacizumab (Homo sapiens, UniProt P01857); test: Microtiter plate chromatography of resins, Bevacizumab whole IgG (bound, yield, selectivity); format: binding, humanized
T1 construct: fused on or other part: humanised anti-VEGF-A VH domain N-terminal of the gamma-1 constant region (engineered, no UniProt entry)

Bevacizumab [2] = test: as above; format: binding, humanized
host cell proteins (HCP) = test: Microtiter plate chromatography of resins, host cell proteins (bound); format: binding, CHO
Tocilizumab = test: Microtiter plate chromatography of resins, Tocilizumab (bound, yield); format: binding, humanized
Palivizumab = test: Microtiter plate chromatography of resins, Palivizumab (bound, yield); format: binding, humanized
[3] = test system: human poly-IgG (h-poly-IgG); test: Microtiter plate chromatography of resins, human poly-IgG (bound, yield); format: binding
[4] = fraction of whole IgG Bevacizumab bound to resin
[5] = mass of whole IgG Bevacizumab eluted / mass injected
[6] = fraction of injected protein bound to resin

| Compound | Bevacizumab IgG Bound (%) (Bevacizumab [1]; [4]) | Bevacizumab IgG Yield (%) (Bevacizumab [1]; [5]) | Selectivity (Bevacizumab [2]) | HCP Bound (%) (host cell proteins (HCP); host cell proteins) | Tocilizumab Bound (%) (Tocilizumab) | Tocilizumab Yield (%) (Tocilizumab) | Palivizumab Bound (%) (Palivizumab) | Palivizumab Yield (%) (Palivizumab) | h-poly-IgG Bound (%) [3] | h-poly-IgG Yield (%) [3] | also measured |
| --- | --- | --- | --- | --- | --- | --- | --- | --- | --- | --- | --- |
| COc1ccc(NC(=O)c2cc(-c3cc(Br)cs3)n(C)n2)cc1C(=O)NCCCN [Ligand L2, 5-[5-(4-Bromo-2-thienyl)-1-methylpyrazol-3-yl]carboxamido-2-methoxybenzoic acid N-(3-aminopropyl)amide] | 100% | 96% | 1.7 | 59% | 100% | 91% | – | – | – | – | Bevacizumab Fc Bound (%) (Bevacizumab Fc fragment): 100%; Bevacizumab Fab Bound (%) (Bevacizumab Fab fragment): 100% |
| Cc1c(NC(=O)c2cc(-c3cccs3)n(C)n2)cccc1C(=O)NCCCN [Ligand L9, 2-Methyl-3-[1-methyl-5-(2-thienyl)pyrazol-3-yl]carboxamidobenzoic acid N-(3-aminopropyl)amide] | 100% | 91% | 1.7 | 58% | 71% | 64% | 41% | 33% | 65% | 53% | – |
| COc1ccc(NC(=O)c2occ3ccccc23)cc1C(=O)NCCCN [Ligand L32, 5-(Benzo[c]furan-1-yl)carboxamido-2-methoxybenzoic acid N-(3-aminopropyl)amide] | 100% | 87% | 2.0 | 49% | 100% | 95% | 100% | 95% | 95% | 74% | – |
| Cc1ccc(C(=O)NCCCN)cc1NC(=O)c1cc(-c2cccs2)n(C)n1 [Ligand L10, 4-Methyl-3-[1-methyl-5-(2-thienyl)pyrazol-3-yl]carboxamidobenzoic acid N-(3-aminopropyl)amide] | 100% | 91% | 1.5 | 68% | 86% | 73% | 59% | 62% | 72% | 60% | – |
| NCCCNC(=O)c1cccc(C(=O)Nc2nnc(-c3ccco3)s2)c1 [Ligand L70, Isophthalic acid N-(3-aminopropyl)-N′-[5-(2-furyl)-1,3,4-thiadiazol-2-yl]amide] | – | – | 5.4 | – | – | – | – | – | – | – | Palivizumab Bound (%) (Palivizumab; [6]): 55%; Palivizumab Yield (%) (Palivizumab; mass eluted / mass injected): 55%; h-poly-IgG Bound (%) [3, 6]: 64%; h-poly-IgG Yield (%) ([3]; mass eluted / mass injected): 64%; Bevacizumab IgG Bound (%) (Bevacizumab [1]; fraction of injected whole IgG bound to resin): 100%; Bevacizumab IgG Yield (%) (Bevacizumab [1]; mass eluted / mass injected, whole IgG): 83%; HCP Bound (%) (host cell proteins (HCP); fraction of injected host cell proteins bound to resin): 19%; Tocilizumab Bound (%) (Tocilizumab; [6]): 100%; Tocilizumab Yield (%) (Tocilizumab; mass eluted / mass injected): 100% |
| COc1ccc(NC(=O)c2nnc(-c3ccco3)o2)cc1C(=O)NCCCN [Ligand L58, 5-[5-(2-Furyl)-1,3,4-oxadiazol-2-yl]carboxamido-2-methoxybenzoic acid (3-amino-1-propyl)amide] | 100% | 90% | 4.3 | 23% | 100% | 100% | 97% | 83% | 98% | 93% | – |
| COc1ccc(NC(=O)c2cc(-c3ccco3)on2)cc1C(=O)NCCCN [Ligand L45, 5-[5-(2-Furyl)isoxazol-3-ylcarboxamido]-2-methoxybenzoic acid (3-amino-1-propyl)amide] | 100% | 82% | 2.3 | 44% | 100% | 100% | 100% | 100% | 100% | 100% | – |
| CCn1nc(C(=O)Nc2ccc(OC)c(C(=O)NCCCN)c2)c2ccccc21 [Ligand L38, 5-(1-Ethylindazol-3-ylcarboxamido)-2-methoxybenzoic acid (3-amino-1-propyl)amide] | 100% | 100% | 2.2 | 45% | 100% | 99% | 91% | 79% | 100% | 99% | – |
| COc1ccc(NC(=O)c2nn(CC(O)CO)c3ccccc23)cc1C(=O)NCCCN (racemic) [Ligand L40, (RS)-5-[1-(2,3-Dihydroxy-1-propyl)indazol-3-ylcarboxamido]-2-methoxybenzoic acid (3-amino-1-propyl)amide] | 100% | 100% | 4.5 | 22% | 90% | 90% | 62% | 62% | 98% | 97% | – |
| COc1ccc(NC(=O)c2cc3ccccn3n2)cc1C(=O)NCCCN [Ligand L46, 2-Methoxy-5-(pyrazolo[1,5-a]pyridin-2-ylcarboxamido)benzoic acid (3-amino-1-propyl)amide] | 100% | 82% | 5.0 | 20% | 100% | 97% | 85% | 85% | 93% | 93% | – |
| COc1ccc(NC(=O)c2cncc(-c3ccc(C(F)(F)F)cc3)c2)cc1C(=O)NCCCN [Ligand L12, 2-Methoxy-5-{3-[4-(trifluoromethyl)phenyl]pyridin-5-yl}carboxamidobenzoic acid N-(3-aminopropyl)amide] | 100% | 50% | 1.6 | 63% | 61% | 49% | 52% | 41% | 68% | 37% | – |
| COc1ccc(NC(=O)c2cc(-c3ccccc3)n(C)n2)cc1C(=O)NCCCN [Ligand L15, 2-Methoxy-5-(1-methyl-5-phenylpyrazol-3-yl)carboxamidobenzoic acid N-(3-aminopropyl)amide] | 99% | 94% | 1.6 | 64% | 100% | 98% | 100% | 90% | 98% | 83% | – |
| COc1ccc(NC(=O)c2cn3ccsc3n2)cc1C(=O)NCCCN [Ligand L37, 5-(Imidazo[2,1-b]thiazol-6-yl)carboxamido-2-methoxybenzoic acid N-(3-aminopropyl)amide] | 100% | 92% | 3.4 | 29% | 99% | 95% | 92% | 87% | 94% | 70% | selectivity index (Bevacizumab [2]; fraction of bound Bevacizumab whole IgG divided by fraction of bound HCP, truncated beyond 10): 3.4 |
| COc1ccc(NC(=O)c2cc3ncccn3n2)cc1C(=O)NCCCN [Ligand L56, 2-Methoxy-5-(pyrazolo[1,5-a]pyrimidin-2-ylcarboxamido)benzoic acid (3-amino-1-propyl)amide] | 100% | 95% | 4.9 | 21% | 95% | 95% | 81% | 79% | 83% | 83% | – |
